# In patent US6737383B1, “Herbicidal oxadiazolidines” (priority 1999, dated 2004):
# Key:
# [1] = system: winter wheat; experiment: Test E winter wheat; type: in vivo, Triticum aestivum; details: Preemergence; for Wheat (winter) plant response rating (0 to 100 scale): Rate 250 g/ha
# [2] = system: winter barley; experiment: Test E winter barley; type: in vivo, Hordeum vulgare; details: Preemergence; for Barley (winter) plant response rating (0 to 100 scale): Rate 250 g/ha
# [3] = system: sugar beet; experiment: Test B pre/postemergence sugar beet; type: in vivo, Beta vulgaris
# In short: (§1)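 Response is a visual 0-to-10 score relative to untreated plants, where 0 means no effect and 10 means complete control, taken twelve to sixteen days after application. Treatments went onto soil at planting and onto foliage of 1- to 4-leaf plants, using a surfactant-containing non-phytotoxic solvent.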
# [4] = system: bamyardgrass; experiment: Test B flood test barnyardgrass; type: in vivo, Echinochloa crus-galli
# In short: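 Each value is a visual injury score relative to controls, with 10 meaning complete control and 0 no effect. Evaluation took place twelve to sixteen days after the 2-leaf-stage plants were treated and kept in the greenhouse.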
# [5] = system: blackgrass; experiment: Test E blackgrass; type: in vivo, Alopecurus myosuroides; details: Preemergence; for Blackgrass plant response rating (0 to 100 scale): Rate 250 g/ha
# [6] = system: surinam grass; experiment: Test B pre/postemergence surinam grass; type: in vivo, Brachiaria decumbens
# In short: as §1
# [7] = system: winter wheat; experiment: Test E winter wheat; type: in vivo, Triticum aestivum; details: Postemergence; for Wheat (winter) plant response rating: Rate 250 g/ha
# In short: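 Visually scored herbicidal effect relative to untreated plants, taken ~21 to 28 days post-application; compound in solvent with surfactant; postemergence sprays at the 1- to 4-leaf stage.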
# [8] = system: wild oat; experiment: Test E wild oat; type: in vivo, Avena fatua; details: Preemergence; for Wild oat plant response rating (0 to 100 scale): Rate 250 g/ha
# [9] = system: blackgrass; experiment: Test B pre/postemergence blackgrass; type: in vivo, Alopecurus myosuroides
# In short: as §1
# [10] = system: green foxtail; experiment: Test E green foxtail; type: in vivo, Setaria viridis; details: Preemergence; for Green foxtail plant response rating (0 to 100 scale): Rate 250 g/ha
# [11] = system: Italian ryegrass; experiment: Test E Italian ryegrass; type: in vivo, Lolium multiflorum; details: Preemergence; for I. Ryegrass plant response rating (0 to 100 scale): Rate 250 g/ha
# [12] = Rate 500 g/ha, 0 to 100 scale where 0 is no effect and 100 is complete control
# [13] = Preemergence, Rate 62 g/ha, scale of 0 to 10 where 0 is no effect and 10 is complete control
# [14] = Preemergence, Rate 250 g/ha, scale of 0 to 10 where 0 is no effect and 10 is complete control
# [15] = Preemergence, Rate 500 g/ha, scale of 0 to 10 where 0 is no effect and 10 is complete control
# [16] = Rate 125 g/ha, Postemergence, scale of 0 to 10 where 0 is no effect and 10 is complete control
# [17] = Rate 125 g/ha, Preemergence, scale of 0 to 10 where 0 is no effect and 10 is complete control
# [18] = Rate 250 g/ha, Postemergence, scale of 0 to 10 where 0 is no effect and 10 is complete control
# [19] = Rate 500 g/ha, Postemergence, scale 0 to 10, 0 no effect, 10 complete control
# [20] = Rate 62 g/ha, headed Pre-emergence (flood test species), scale 0 to 10 (0 no effect, 10 complete control)
# [21] = Rate 125 g/ha, Pre-emergence, flood test species, scale 0 to 10 where 0 is no effect and 10 is complete control
# [22] = Rate 250 g/ha, Pre-emergence, flood-test species, scale 0 to 10, 0 is no effect, 10 is complete control
# [23] = Rate 500 g/ha, Pre-emergence, flood test species, scale 0 to 10 (0 no effect, 10 complete control)
# [24] = Rate 62 g/ha, Postemergence, scale of 0 to 10 where 0 is no effect and 10 is complete control
# [25] = 0 to 100 scale where 0 is no effect and 100 is complete control
# [26] = Rate 500 g/ha, 0 to 100 scale, 0 is no effect, 100 is complete control
# [27] = Rate 125 g/ha, 0 to 100 scale (0 no effect, 100 complete control)
# [28] = Rate 1000 g/ha, 0 to 100 scale, 0 no effect, 100 complete control
smiles,measurement,setting,value
CC(C)N(C(=O)n1oc(=O)n(Cc2ccccn2)c1=O)c1ccc(F)cc1 [Compound 267],Wheat (winter) plant response rating (0 to 100 scale),[1],55
same,"Plant response rating, Wheat (winter)",[1]; [12],70
same,Barley (winter) plant response rating (0 to 100 scale),[2],30
same,"Plant response rating, Barley (winter)",[2]; [12],70
same,Sugarbeets plant response rating,[3]; [13],0
same,Sugarbeets plant response rating,[3]; [14],0
same,"Plant response rating, Sugarbeets",[3]; [15],5
same,Sugarbeets plant response rating,[3]; [16],0
same,Sugarbeets plant response rating,[3]; [17],0
same,"Plant response rating, Sugarbeets",[3]; [18],2
same,Sugarbeets plant response rating,[3]; [19],4
same,Barnyardgrass plant response rating,[4]; [20],0
same,Barnyardgrass plant response rating,[4]; [21],0
same,Barnyardgrass plant response rating,[4]; [22],0
same,Barnyardgrass plant response rating,[4]; [23],0
same,Blackgrass plant response rating (0 to 100 scale),[5],50
same,"Plant response rating, Blackgrass",[5]; [12],60
same,B. signalgrass plant response rating,[6]; [13],0
same,B. signalgrass plant response rating,[6]; [14],0
same,"Plant response rating, B. signalgrass",[6]; [15],9
same,B. signalgrass plant response rating,[6]; [24],0
same,B. signalgrass plant response rating,[6]; [16],0
same,B. signalgrass plant response rating,[6]; [17],0
same,"Plant response rating, B. signalgrass",[6]; [18],0
same,B. signalgrass plant response rating,[6]; [19],3
same,Wheat (winter) plant response rating,[7]; [25],70
same,"Plant response rating, Wheat (winter)",[7]; [26],70
same,Wild oat plant response rating (0 to 100 scale),[8],55
same,"Plant response rating, Wild oat",[8]; [12],70
same,Blackgrass plant response rating,[9]; [13],0
same,Blackgrass plant response rating,[9]; [14],2
same,"Plant response rating, Blackgrass",[9]; [15],8
same,Blackgrass plant response rating,[9]; [24],0
same,Blackgrass plant response rating,[9]; [16],0
same,Blackgrass plant response rating,[9]; [17],2
same,"Plant response rating, Blackgrass",[9]; [18],5
same,Blackgrass plant response rating,[9]; [19],8
same,Green foxtail plant response rating (0 to 100 scale),[10],100
same,"Plant response rating, Green foxtail",[10]; [12],100
same,I. Ryegrass plant response rating (0 to 100 scale),[11],50
same,"Plant response rating, I. Ryegrass",[11]; [12],50
CC(C)N(C(=O)n1oc(=O)n(C2CCCC2)c1=O)c1ccc(F)cc1 [Compound 271],"Plant response rating, Wheat (winter)",[1]; [27],30
same,Wheat (winter) plant response rating (0 to 100 scale),[1],60
same,"Plant response rating, Wheat (winter)",[1]; [12],50
same,"Plant response rating, Wheat (winter)",[1]; [28],75
same,"Plant response rating, Barley (winter)",[2]; [27],35
same,Barley (winter) plant response rating (0 to 100 scale),[2],45
same,"Plant response rating, Barley (winter)",[2]; [12],50
same,"Plant response rating, Barley (winter)",[2]; [28],60
same,Sugarbeets plant response rating,[3]; [13],5
same,Sugarbeets plant response rating,[3]; [14],8
same,"Plant response rating, Sugarbeets",[3]; [15],8
same,Sugarbeets plant response rating,[3]; [16],2
same,Sugarbeets plant response rating,[3]; [17],6
same,"Plant response rating, Sugarbeets",[3]; [18],4
same,Sugarbeets plant response rating,[3]; [19],6
same,Barnyardgrass plant response rating,[4]; [20],4
same,Barnyardgrass plant response rating,[4]; [21],3
same,Barnyardgrass plant response rating,[4]; [22],9
same,Barnyardgrass plant response rating,[4]; [23],9
same,"Plant response rating, Blackgrass",[5]; [27],30
same,Blackgrass plant response rating (0 to 100 scale),[5],100
same,"Plant response rating, Blackgrass",[5]; [12],80
same,"Plant response rating, Blackgrass",[5]; [28],100
same,B. signalgrass plant response rating,[6]; [13],8
same,B. signalgrass plant response rating,[6]; [14],8
same,"Plant response rating, B. signalgrass",[6]; [15],10
same,B. signalgrass plant response rating,[6]; [24],0
same,B. signalgrass plant response rating,[6]; [16],0
same,B. signalgrass plant response rating,[6]; [17],8
same,"Plant response rating, B. signalgrass",[6]; [18],2
same,B. signalgrass plant response rating,[6]; [19],5
same,"Plant response rating, Wheat (winter)","[7]; Rate 125 g/ha, 0 to 100 scale, 0 is no effect, 100 is complete control",10
same,"Plant response rating, Wheat (winter)","[7]; Rate 1000 g/ha, 0 to 100 scale where 0 is no effect and 100 is complete control",0
same,Wheat (winter) plant response rating,[7]; [25],10
same,"Plant response rating, Wheat (winter)",[7]; [26],0
same,"Plant response rating, Wild oat",[8]; [27],50
same,Wild oat plant response rating (0 to 100 scale),[8],60
same,"Plant response rating, Wild oat",[8]; [12],65
same,"Plant response rating, Wild oat",[8]; [28],60
same,Blackgrass plant response rating,[9]; [13],8
same,Blackgrass plant response rating,[9]; [14],10
same,"Plant response rating, Blackgrass",[9]; [15],10
same,Blackgrass plant response rating,[9]; [24],3
same,Blackgrass plant response rating,[9]; [16],4
same,Blackgrass plant response rating,[9]; [17],9
same,"Plant response rating, Blackgrass",[9]; [18],8
same,Blackgrass plant response rating,[9]; [19],8
same,"Plant response rating, Green foxtail",[10]; [27],70
same,Green foxtail plant response rating (0 to 100 scale),[10],100
same,"Plant response rating, Green foxtail",[10]; [12],100
same,"Plant response rating, Green foxtail",[10]; [28],100
same,"Plant response rating, I. Ryegrass",[11]; [27],60
same,I. Ryegrass plant response rating (0 to 100 scale),[11],100
same,"Plant response rating, I. Ryegrass",[11]; [12],85
same,"Plant response rating, I. Ryegrass",[11]; [28],100
